# Numbered stars: 1 amine (or outer) side, 2 acyl side, 3 side chain; on linkers, the order of the positions; unused ones are H or OH. Bridge positions count the residues as written; N and C are the ends. Square brackets hold non-standard residues; d marks the D form. Ends that are not written are not given here. Peptide text beside a SMILES is read from it. DABHC = 2-azabicyclo[2,2,1]heptane-3-carboxylic acid, D-form (1R,3R,4S), O=C([C@H]1[C@H]2CC[C@H](C2)N1[*:1])[*:2]; X2 = O=C([C@@H]1[C@@H]2CC[C@@H](C2)N1[*:1])[*:2]; X1 = O=C([C@H]1[C@H]2CC[C@H](C2)N1[*:1])[*:2]; LABHC = not defined here
# Assays:
# NR6/HER cells [1] = type: cell-based, mouse
# Description: NR6 and NR6/HER cells (NR6 mouse fibroblasts transfected with human EGF-R expression plasmid) and HN5 squamous carcinoma cells (see Cowley, G. P. et al, Br. J. Cancer 1986, 53, 2230229) were routinely cultured in Dulbecco's Modified Eagles Medium (DMEM) containing 10% foetal bovine serum (FBS), 2 mM glutamine, non-essential amino acids, 10 U/ml penicillin and 10 μg/ml streptomycin at 37° C. in a humidified atmosphere of air containing 5% CO2. G418 (100 μg/ml) was also included in the NR6/HER growth medium as selection for EGF Receptor encoding transformants.
# (§1) The ability of the Example 1 peptide to induce DNA synthesis in confluent and quiescent cells was assayed as described in Davies, D. E. et al, Br. J. Cancer 1994, 70, 263-269 but using NR6/HER or NR6 cells in place of human foreskin fibroplasts.
# NR6/HER cells [2] = test: Effect of peptide on the mitogenic response induced by TGFA; type: cell-based, mouse
# Description: as §1
# EGF Receptor = biological target: T1, EGF Receptor (Homo sapiens, UniProt P00533); test: EGF Receptor Tyr phosphorylation assay in HN5 cells (Western blotting); type: cell-based; conditions: 10 minutes at room temperature
# T1 construct: endogenous in cells; host or cells: HN5 squamous carcinoma cells
# T1 sequence (P00533 25-1210): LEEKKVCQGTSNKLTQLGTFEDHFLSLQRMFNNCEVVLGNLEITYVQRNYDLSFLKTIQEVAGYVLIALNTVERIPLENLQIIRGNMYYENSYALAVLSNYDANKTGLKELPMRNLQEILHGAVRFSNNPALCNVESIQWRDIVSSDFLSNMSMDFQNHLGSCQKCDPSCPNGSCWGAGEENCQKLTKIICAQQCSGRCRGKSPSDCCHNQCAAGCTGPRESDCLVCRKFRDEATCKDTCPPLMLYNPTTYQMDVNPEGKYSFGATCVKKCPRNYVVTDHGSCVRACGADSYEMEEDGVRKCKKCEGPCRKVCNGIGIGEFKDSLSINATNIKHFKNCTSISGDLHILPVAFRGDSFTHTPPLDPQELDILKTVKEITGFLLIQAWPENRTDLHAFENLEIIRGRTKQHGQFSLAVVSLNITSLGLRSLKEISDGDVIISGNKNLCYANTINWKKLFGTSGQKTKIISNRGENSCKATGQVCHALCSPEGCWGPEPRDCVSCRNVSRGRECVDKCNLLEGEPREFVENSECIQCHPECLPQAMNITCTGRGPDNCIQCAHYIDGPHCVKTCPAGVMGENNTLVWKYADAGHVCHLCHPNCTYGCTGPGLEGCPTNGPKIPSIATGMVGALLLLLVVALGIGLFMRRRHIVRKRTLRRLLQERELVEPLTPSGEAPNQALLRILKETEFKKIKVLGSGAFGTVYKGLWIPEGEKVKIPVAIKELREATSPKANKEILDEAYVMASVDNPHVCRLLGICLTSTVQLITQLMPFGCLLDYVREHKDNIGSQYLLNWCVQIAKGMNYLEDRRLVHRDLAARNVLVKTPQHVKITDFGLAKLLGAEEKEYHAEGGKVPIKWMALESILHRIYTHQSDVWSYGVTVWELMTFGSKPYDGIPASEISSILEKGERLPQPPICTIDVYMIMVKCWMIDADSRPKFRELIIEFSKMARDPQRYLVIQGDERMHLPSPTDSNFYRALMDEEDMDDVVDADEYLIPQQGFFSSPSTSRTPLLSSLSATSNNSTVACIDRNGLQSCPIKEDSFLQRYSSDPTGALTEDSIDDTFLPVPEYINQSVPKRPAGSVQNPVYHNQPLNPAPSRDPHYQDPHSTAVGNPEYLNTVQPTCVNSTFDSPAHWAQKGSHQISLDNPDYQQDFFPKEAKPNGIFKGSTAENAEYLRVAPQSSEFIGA
# Description: EGF Receptor Tyr phosphorylation assays were performed using HN5 cells at approximately 50% confluence in 96-well plates. Cells were plated in 10% FBS/DMEM and allowed to adhere overnight. Medium was removed and wells washed twice with DMEM. The peptide was diluted in DMEM and added in 50 μl volume and cells incubated for 10 minutes at room temperature. At the end of incubation, reagents were removed and the cells washed once with 50 μl/well buffered saline and then rapidly solubilised with 50 μl/well×1 sample buffer containing phosphatase and protease inhibitors (1 mM NaF, 1 mM Na3 VO4, 100 μM PMSF). Enhanced phosphorylation of the 170 kDa EGF-R was determined by Western Blotting after SDS polyacrylamide gel electrophoresis as in Holt, S. J. et al, Biochem. Pharmacol. 1994, 47, 117-126.
# NR6 cells = test: Mitogenic activity on parental NR6 cell line which lacks EGF-R; type: cell-based, mouse; conditions: doses maximally stimulating for NR6/HER cells; FIG. 3
# [3] = biological target: human EGF Receptor on NR6/HER cells (NR6 mouse fibroblasts transfected with human EGF-R expression plasmid) (human, UniProt P00533); test: cell-based or functional assay
molecule,measurement,setting,value
CC(C)C[C@@H]1NC(=O)[C@H](Cc2ccccc2)NC(=O)[C@H](CCCNC(=N)N)NC(=O)[C@@H](NC(=O)[C@@H](N)Cc2ccccc2)CSSC[C@@H](C(=O)O)NC(=O)[C@H](C)NC(=O)[C@H]2[C@H]3CC[C@H](C3)N2C(=O)[C@H](CCCCN)NC(=O)[C@H](CC(=O)O)NC(=O)[C@H](CCC(=O)O)NC(=O)[C@H](CCC(N)=O)NC(=O)[C@H](C(C)C)NC1=O [Example 1 peptide] (H-FCRFLVQEDK[X1]AC-OH; disulfide 2-13),EC50,NR6/HER cells [1],130 µM
CC(C)C[C@@H]1NC(=O)[C@H](Cc2ccccc2)NC(=O)[C@H](CCCNC(=N)N)NC(=O)[C@@H](NC(=O)[C@@H](N)Cc2ccccc2)CSSC[C@@H](C(=O)O)NC(=O)[C@H](C)NC(=O)[C@@H]2[C@@H]3CC[C@@H](C3)N2C(=O)[C@H](CCCCN)NC(=O)[C@H](CC(=O)O)NC(=O)[C@H](CCC(=O)O)NC(=O)[C@H](CCC(N)=O)NC(=O)[C@H](C(C)C)NC1=O [peptide incorporating LABHC] (H-FCRFLVQEDK[X2]AC-OH; disulfide 2-13; N-terminus assumed),effect on mitogenic response at maximal doses of TGFA,"NR6/HER cells [2]; maximal doses of TGFA, FIG. 2(b)","Similar, but less pronounced"
same,effect on mitogenic response at suboptimal doses of TGFA,"NR6/HER cells [2]; suboptimal doses of TGFA, FIG. 2(a)","Similar, but less pronounced"
same,EC50,NR6/HER cells [1],330 µM
same,EGF Receptor phosphorylation,EGF Receptor,Neither the Example 1 peptide nor the corresponding peptide incorporating LABHC appeared to lead to increased EGF Receptor phosphorylation
PDGF,mitogenic response of NR6 cells (EGF-R negative),NR6 cells,responsiveness of the cells to a mitogenic stimulus was confirmed
FCRFLVQEDK[DABHC]AC (disulfide 2-13),"DNA synthesis (mitogenic activity), EC50",[3],130 µM
FCRFLVQEDK[LABHC]AC (disulfide 2-13; reading uncertain),"DNA synthesis (mitogenic activity), EC50",[3],330 µM

# Reference: US5969099A, “Growth factor analogs” (The Secretary of State for Defence, priority 1995, dated 1999)
